Laboratory results as given in the Kinase Knowledgebase extract (Sharma et al. 2016).

Target: EGFR (human) (UniProt P00533)
Conditions: hl-60

Chain of EGFR (human) (P00533 whole entry, looked up): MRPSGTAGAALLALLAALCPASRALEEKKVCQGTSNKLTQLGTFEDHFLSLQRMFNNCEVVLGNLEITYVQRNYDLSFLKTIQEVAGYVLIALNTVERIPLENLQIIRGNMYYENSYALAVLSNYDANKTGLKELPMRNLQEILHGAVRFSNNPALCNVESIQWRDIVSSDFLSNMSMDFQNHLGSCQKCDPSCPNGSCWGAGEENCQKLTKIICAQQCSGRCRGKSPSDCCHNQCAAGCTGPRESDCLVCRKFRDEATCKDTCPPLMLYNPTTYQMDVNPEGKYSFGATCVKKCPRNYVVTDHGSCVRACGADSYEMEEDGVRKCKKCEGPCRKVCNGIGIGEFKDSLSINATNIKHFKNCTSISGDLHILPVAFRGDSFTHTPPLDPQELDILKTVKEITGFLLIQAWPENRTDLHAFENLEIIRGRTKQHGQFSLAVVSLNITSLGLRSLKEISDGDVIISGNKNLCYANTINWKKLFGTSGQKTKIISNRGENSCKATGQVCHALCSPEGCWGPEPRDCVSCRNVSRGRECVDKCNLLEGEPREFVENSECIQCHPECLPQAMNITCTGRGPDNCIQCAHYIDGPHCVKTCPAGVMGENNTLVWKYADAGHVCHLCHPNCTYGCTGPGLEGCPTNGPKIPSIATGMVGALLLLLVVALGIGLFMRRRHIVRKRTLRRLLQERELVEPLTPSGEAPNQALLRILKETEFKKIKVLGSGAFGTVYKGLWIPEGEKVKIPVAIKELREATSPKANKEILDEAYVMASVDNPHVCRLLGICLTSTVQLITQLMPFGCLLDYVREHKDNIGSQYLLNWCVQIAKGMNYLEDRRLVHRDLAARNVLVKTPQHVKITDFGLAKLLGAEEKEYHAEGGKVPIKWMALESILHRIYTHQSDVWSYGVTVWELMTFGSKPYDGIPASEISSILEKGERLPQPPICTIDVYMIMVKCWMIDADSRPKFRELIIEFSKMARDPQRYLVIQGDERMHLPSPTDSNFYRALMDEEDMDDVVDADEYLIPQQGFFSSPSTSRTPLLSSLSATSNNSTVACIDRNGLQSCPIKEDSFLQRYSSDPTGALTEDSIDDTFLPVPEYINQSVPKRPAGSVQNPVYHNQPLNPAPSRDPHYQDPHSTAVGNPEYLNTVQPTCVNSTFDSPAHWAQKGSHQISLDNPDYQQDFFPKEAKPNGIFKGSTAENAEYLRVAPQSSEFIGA

IC50 [µM]	Structure (SMILES)
> 100	O=C(CCCCCC(=O)Nc1ccc(O)c(C(=O)Nc2cccc(C(F)(F)F)c2)c1)NO
> 100	O=C(CCCCCC(=O)Nc1ccc(O)c(C(=O)Nc2cccc(F)c2)c1)NO
> 100	O=C(CCCCCC(=O)Nc1ccc(O)c(C(=O)Nc2ccc(Cl)c(Cl)c2)c1)NO
> 100	O=C(CCCCCC(=O)Nc1ccc(O)c(C(=O)Nc2ccc(F)c(Cl)c2)c1)NO
> 100	O=C(CCCCCC(=O)Nc1ccc(O)c(C(=O)Nc2ccc(Cl)c(C(F)(F)F)c2)c1)NO
> 100	O=C(CCCCCC(=O)Nc1ccc(O)c(C(=O)Nc2ccc(F)c(F)c2)c1)NO
> 100	C#Cc1cccc(NC(=O)c2cc(NC(=O)CCCCCC(=O)NO)ccc2O)c1
> 100	C#Cc1cccc(NC(=O)c2cc(NC(=O)CCCCCCC(=O)NO)ccc2O)c1
> 100	O=C(CCCCCC(=O)Nc1ccc(O)c(C(=O)Nc2ccc(OCc3cccc(F)c3)c(Cl)c2)c1)NO
> 100	C#Cc1cccc(NC(=O)c2cccc(NC(=O)CCCCCC(=O)NO)c2)c1
